According to patent US20210070723A1, “CRYSTAL FORM OF SESQUITERPENE DERIVATIVE, PREPARATION METHOD THEREFOR AND USE THEREOF” (Nankai University, priority 2017, published 2021):
Like-named read-outs stand apart in the source and are kept apart here.

Columns and labels:
[1] = Hygroscopicity: open weighing bottles in a constant temperature and humidity incubator, moisture absorption rate; type: physicochemical; conditions: for hygroscopicity (in words): compared with the amorphous compound of structural formula (I); for Moisture absorption rates after 1 month / Moisture absorption rates after 2 months / Moisture absorption rates after 2 weeks: 25° C., 75% humidity
Description: The crystal form A products prepared in example 1, example 2 and example 3 were taken and placed in weighing bottles for precision weighing. The caps of the bottles were opened, the bottles were put on an upper part of a drier and placed in a constant temperature and humidity incubator with 25° C. and 75% humidity, three parts were subjected to parallel operation, and then taken and weighed in two weeks, one month and two months respectively, and the compound amorphous powder of structural formula (I) was used as comparative example 1. Moisture absorption rate=(weight after moisture absorption - weight before moisture absorption)/weight before moisture absorption×100%.

[2] = Absorption experiment (pharmacokinetics and bioavailability) in rats; type: in vivo; conditions: Sprague Dawley, plasma, rat; for bioavailability: oral, 150 mpk
Description: Trial rats were Sprague Dawley rats, 7 rats in total, 1 rat was used as blank control, and blank plasma was taken to be used. 3 rats were administrated via tail intravenous injection (30 mpk), and 3 rats were orally and intragastrically administrated (150 mpk). According to the set time schedule, blood was collected from orbital vein to put in a blood collection vessel containing heparin sodium, centrifuged for 10min at 4° C. and 3500rpm, the supernatant of plasma was taken and put into EP tube, and the content of the compound of structural formula (I) in blood was detected. Bioavailability was calculated according to the following formula: bioavailability F %=(AUCpo/AUCIV)×(dose IV/dose po)×100%; Time schedule was set, as shown in Table 2. AUCpo is an area under the drug concentration-time curve under administrating oral drug, AUCIV is an area under the drug concentration-time curve under intravenous injecting drug, dose IV is the dose of the injected drug, the dose po is the dose of the oral drug, Tmax (h) is the time to reach the blood peak, T1/2 (h) is the half-life of blood concentration, and Cmax (ng/mL) is the drug peak concentration of the drug-time curve.

[3] = test system: IPF model (bleomycin); test: Animal drug effect in the bleomycin-induced IPF model, intragastric administration; type: in vivo, C57BL/6 mice; conditions: for overall effect on idiopathic pulmonary fibrosis: bleomycin mouse model, vs Pirfenidone and Nintedanib
Description: Trial mice were C57BL/6 mice, 35 mice in total, 7 mice in each group, including a saline group, a bleomycin group, a Nintedanib group (100 mpk), a Pirfenidone group (200 mpk) and a group (100 mpk) administrating the crystal form A of the compound of structural formula (I). On day 0, bleomycin (2U/kg) was injected using a trachea to establish an IPF model, 0-7 days were inflammation periods of mice, and 7-14 days were fibrosis lasting progressive periods of mice. Administration was conducted on the day 7, materials were taken on the day 14, the lung functions of mice were measured after mice were narcotized, then the left lungs were taken to make pathological sections, and the right lungs were used to measure hydroxyproline.

[4] = 30 mg/kg, intravenous injection (30 mpk)
[5] = 150 mg/kg, oral administration (150 mpk)

Compound: CN(C)C[C@@H]1C(=O)O[C@@H]2C[C@@]3(C)CC[C@@H](O)[C@]4(CO4)[C@@H]3C[C@H]12.O=C(O)CCC(=O)O
- hygroscopicity (in words) [1]: obviously reduced
- hygroscopicity (in words) ([1]; listed as crystal form A of the compound (I)): basically non-hygroscopic
- AUC [2, 4]: 40.6 µg·h/mL
- Cmax [2, 4]: 21300 ng/mL
- Tmax [2, 4]: 0.11 h
- half-life [2, 4]: 1.35 h
- AUC [2, 5]: 174 µg·h/mL
- Cmax [2, 5]: 56300 ng/mL
- Tmax [2, 5]: 0.67 h
- half-life [2, 5]: 1.91 h
- bioavailability ([2]; po 150 mpk vs iv 30 mpk, read-out: bioavailability): 85.8%
- pathological sections (area of pulmonary fibrosis focus, alveolar structure) ([3]; 100 mpk, administration from day 7, left lung taken on day 14): can obviously reduce the area of pulmonary fibrosis focus and normalize the alveolar structure
- forced vital capacity (FVC) ([3]; 100 mpk, day 14): can significantly improve the FVC of mice
- pulmonary fibrosis area (fibrotic percentage) ([3]; 100 mpk, day 14, vs Nintedanib (100 mpk) and Pirfenidone (200 mpk)): superior to the positive drugs
- expression of hydroxyproline (content of collagen in the lungs) ([3]; 100 mpk, right lung, day 14): can significantly reduce the content of collagen in the lungs
- overall effect on idiopathic pulmonary fibrosis [3]: can significantly alleviate idiopathic pulmonary fibrosis

Compound: CN(C)C[C@@H]1C(=O)O[C@@H]2C[C@@]3(C)CC[C@@H](O)[C@]4(CO4)[C@@H]3C[C@H]12.O=C(O)CCC(=O)O [Example 1]
- Moisture absorption rates after 1 month [1]: 2.7%
- Moisture absorption rates after 2 months [1]: 3.2%
- Moisture absorption rates after 2 weeks [1]: 1.4%
- bioavailability ([2]; crystal form A prepared by the methods in example 1 and example 3, read-out: bioavailabilities): > 85.5%
- overall effect on idiopathic pulmonary fibrosis [3]: can significantly alleviate idiopathic pulmonary fibrosis

Compound: CN(C)C[C@@H]1C(=O)O[C@@H]2C[C@@]3(C)CC[C@@H](O)[C@]4(CO4)[C@@H]3C[C@H]12.O=C(O)CCC(=O)O [Example 2]
- Moisture absorption rates after 1 month [1]: 3.8%
- Moisture absorption rates after 2 months [1]: 3.1%
- Moisture absorption rates after 2 weeks [1]: 1.9%

Compound: CN(C)C[C@@H]1C(=O)O[C@@H]2C[C@@]3(C)CC[C@@H](O)[C@]4(CO4)[C@@H]3C[C@H]12.O=C(O)CCC(=O)O [Example 3]
- Moisture absorption rates after 1 month [1]: 2.2%
- Moisture absorption rates after 2 months [1]: 2.8%
- Moisture absorption rates after 2 weeks [1]: 1.6%
- overall effect on idiopathic pulmonary fibrosis [3]: can significantly alleviate idiopathic pulmonary fibrosis

Compound: CN(C)C[C@@H]1C(=O)O[C@@H]2C[C@@]3(C)CC[C@@H](O)[C@]4(CO4)[C@@H]3C[C@H]12.O=C(O)CCC(=O)O [compound 1]
- Moisture absorption rates after 1 month [1]: 12.7%
- Moisture absorption rates after 2 months [1]: 22.6%
- Moisture absorption rates after 2 weeks [1]: 8.1%
